pIC50: −log10 of the molar value.
Key:
[1] = target: T1, Receptor-type tyrosine-protein kinase FLT3 (Homo sapiens, UniProt P36888); test: Selectivity interaction (Kinase panel (Invitrogen, enzymatic assay)) EUB0000162b FLT3
T1 sequence (P36888 whole entry): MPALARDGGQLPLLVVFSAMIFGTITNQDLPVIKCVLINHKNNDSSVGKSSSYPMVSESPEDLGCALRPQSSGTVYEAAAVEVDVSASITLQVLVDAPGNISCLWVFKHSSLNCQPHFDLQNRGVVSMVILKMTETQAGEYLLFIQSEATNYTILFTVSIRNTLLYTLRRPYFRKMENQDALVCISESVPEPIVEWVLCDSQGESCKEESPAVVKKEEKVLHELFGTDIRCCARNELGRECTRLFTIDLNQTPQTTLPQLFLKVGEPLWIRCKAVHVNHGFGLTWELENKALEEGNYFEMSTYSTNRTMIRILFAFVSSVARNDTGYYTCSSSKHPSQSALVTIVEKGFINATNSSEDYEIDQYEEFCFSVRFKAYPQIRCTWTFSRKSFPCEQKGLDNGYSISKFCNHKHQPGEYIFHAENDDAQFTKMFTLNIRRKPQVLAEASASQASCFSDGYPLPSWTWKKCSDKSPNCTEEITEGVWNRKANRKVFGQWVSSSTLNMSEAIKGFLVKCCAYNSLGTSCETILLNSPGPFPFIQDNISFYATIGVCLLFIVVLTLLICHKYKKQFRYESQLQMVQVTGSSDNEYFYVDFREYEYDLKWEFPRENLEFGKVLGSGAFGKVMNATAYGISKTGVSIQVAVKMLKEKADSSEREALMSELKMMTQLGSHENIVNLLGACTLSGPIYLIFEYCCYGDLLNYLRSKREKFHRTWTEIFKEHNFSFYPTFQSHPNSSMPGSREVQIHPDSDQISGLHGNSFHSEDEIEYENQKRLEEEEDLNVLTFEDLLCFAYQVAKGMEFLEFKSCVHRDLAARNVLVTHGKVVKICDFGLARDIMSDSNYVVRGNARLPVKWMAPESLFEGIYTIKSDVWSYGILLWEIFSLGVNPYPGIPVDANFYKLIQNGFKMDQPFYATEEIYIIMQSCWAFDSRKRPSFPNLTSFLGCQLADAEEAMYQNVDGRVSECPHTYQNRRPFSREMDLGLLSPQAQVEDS

[2] = target: T2, Dual specificity mitogen-activated protein kinase kinase 5 (Homo sapiens) (UniProt Q13163); test: Selectivity interaction (ProQinase) EUB0000171b MAP2K5
T2 sequence (whole entry): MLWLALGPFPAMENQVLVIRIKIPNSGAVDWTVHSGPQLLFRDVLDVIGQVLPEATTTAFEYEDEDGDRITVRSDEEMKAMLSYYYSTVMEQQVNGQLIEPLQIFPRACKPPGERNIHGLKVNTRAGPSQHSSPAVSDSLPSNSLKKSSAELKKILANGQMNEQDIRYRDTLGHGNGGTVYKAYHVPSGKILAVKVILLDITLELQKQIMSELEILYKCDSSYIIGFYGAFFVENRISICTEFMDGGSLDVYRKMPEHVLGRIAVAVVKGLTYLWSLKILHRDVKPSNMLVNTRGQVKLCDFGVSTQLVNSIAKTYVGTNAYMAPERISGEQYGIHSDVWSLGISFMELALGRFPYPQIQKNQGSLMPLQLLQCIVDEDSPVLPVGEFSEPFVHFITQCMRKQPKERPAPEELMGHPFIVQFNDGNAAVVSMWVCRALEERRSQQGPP

[3] = target: T3, Serine/threonine-protein kinase Sgk1 (Homo sapiens) (UniProt O00141); test: Selectivity interaction (Millipore kinase profiler) EUB0000124b SGK1; details: at 10 µM
T3 sequence (whole entry): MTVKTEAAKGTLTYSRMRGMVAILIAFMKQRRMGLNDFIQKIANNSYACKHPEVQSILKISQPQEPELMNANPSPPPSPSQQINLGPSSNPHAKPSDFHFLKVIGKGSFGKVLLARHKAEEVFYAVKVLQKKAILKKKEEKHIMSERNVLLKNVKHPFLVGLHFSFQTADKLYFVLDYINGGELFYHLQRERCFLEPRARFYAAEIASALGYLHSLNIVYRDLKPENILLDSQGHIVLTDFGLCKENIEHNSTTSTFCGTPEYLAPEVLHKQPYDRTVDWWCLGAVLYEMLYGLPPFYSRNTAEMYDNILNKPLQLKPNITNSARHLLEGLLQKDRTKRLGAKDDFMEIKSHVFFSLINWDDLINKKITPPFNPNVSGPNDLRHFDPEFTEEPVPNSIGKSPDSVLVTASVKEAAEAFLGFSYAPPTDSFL

[4] = test system: Serine/threonine-protein kinase B-raf (Homo sapiens), P15056 [V600E]; details: at 10 µM
[5] = Selectivity interaction (Kinase panel (Enzyme activity assay)) EUB0000612a IGF1
[6] = target: STE20-like serine/threonine-protein kinase (Homo sapiens, UniProt Q9H2G2); test: Selectivity interaction (KinomeScan (DiscoverX)) EUB0001049a SLK; details: at 1 µM
[7] = target: Serine/threonine-protein kinase MARK2 (Homo sapiens) (UniProt Q7KZI7); test: Selectivity interaction (KinomeScan (DiscoverX)) EUB0000045b MARK2
[8] = target: Citron Rho-interacting kinase (Homo sapiens) (UniProt O14578); test: Selectivity interaction (KinomeScan (DiscoverX)) EUB0000618a CIT; details: at 10 µM
[9] = target: T4, Serine/threonine-protein kinase DCLK3 (Homo sapiens) (UniProt Q9C098); test: Selectivity interaction (KinomeScan (DiscoverX)) EUB0001619a DCLK3; details: at 1 µM
T4 sequence (whole entry): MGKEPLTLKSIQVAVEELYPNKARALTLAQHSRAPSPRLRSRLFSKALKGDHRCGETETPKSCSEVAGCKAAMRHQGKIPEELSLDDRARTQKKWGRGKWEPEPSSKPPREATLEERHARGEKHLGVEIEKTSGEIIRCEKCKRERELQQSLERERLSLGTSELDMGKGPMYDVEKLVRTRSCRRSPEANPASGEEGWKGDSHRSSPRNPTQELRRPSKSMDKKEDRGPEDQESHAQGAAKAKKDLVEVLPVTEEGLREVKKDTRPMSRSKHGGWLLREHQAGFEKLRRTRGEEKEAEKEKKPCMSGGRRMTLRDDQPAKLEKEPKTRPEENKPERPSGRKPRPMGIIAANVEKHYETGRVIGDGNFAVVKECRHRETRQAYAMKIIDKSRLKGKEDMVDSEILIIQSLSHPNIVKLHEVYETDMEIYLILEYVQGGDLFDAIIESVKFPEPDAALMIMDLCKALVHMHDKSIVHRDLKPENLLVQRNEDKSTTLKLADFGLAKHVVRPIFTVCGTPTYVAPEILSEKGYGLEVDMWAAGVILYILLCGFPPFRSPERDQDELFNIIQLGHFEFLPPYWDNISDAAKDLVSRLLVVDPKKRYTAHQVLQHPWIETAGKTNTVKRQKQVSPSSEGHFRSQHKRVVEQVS

Chain of Serine/threonine-protein kinase MARK2 (Homo sapiens) (Q7KZI7 whole entry): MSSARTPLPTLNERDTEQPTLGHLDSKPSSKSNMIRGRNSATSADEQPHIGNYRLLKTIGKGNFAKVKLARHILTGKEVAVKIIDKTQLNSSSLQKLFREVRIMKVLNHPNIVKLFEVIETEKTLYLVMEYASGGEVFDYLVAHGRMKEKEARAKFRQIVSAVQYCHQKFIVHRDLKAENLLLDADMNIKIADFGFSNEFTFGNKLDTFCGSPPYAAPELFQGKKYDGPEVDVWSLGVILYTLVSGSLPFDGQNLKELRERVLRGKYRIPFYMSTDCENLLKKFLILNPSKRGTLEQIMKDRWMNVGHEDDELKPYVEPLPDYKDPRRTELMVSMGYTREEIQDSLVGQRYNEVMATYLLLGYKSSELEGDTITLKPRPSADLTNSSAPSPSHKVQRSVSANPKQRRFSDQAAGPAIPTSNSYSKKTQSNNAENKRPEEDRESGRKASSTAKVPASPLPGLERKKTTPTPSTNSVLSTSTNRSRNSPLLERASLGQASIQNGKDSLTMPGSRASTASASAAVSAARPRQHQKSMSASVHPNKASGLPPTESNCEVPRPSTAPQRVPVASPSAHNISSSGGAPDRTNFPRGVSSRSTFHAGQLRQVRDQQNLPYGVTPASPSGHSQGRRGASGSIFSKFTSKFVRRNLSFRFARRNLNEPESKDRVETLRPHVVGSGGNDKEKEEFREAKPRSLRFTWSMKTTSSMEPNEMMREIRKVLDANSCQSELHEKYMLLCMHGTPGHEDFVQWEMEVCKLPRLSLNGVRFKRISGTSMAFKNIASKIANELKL
Chain of STE20-like serine/threonine-protein kinase (Q9H2G2 whole entry, looked up): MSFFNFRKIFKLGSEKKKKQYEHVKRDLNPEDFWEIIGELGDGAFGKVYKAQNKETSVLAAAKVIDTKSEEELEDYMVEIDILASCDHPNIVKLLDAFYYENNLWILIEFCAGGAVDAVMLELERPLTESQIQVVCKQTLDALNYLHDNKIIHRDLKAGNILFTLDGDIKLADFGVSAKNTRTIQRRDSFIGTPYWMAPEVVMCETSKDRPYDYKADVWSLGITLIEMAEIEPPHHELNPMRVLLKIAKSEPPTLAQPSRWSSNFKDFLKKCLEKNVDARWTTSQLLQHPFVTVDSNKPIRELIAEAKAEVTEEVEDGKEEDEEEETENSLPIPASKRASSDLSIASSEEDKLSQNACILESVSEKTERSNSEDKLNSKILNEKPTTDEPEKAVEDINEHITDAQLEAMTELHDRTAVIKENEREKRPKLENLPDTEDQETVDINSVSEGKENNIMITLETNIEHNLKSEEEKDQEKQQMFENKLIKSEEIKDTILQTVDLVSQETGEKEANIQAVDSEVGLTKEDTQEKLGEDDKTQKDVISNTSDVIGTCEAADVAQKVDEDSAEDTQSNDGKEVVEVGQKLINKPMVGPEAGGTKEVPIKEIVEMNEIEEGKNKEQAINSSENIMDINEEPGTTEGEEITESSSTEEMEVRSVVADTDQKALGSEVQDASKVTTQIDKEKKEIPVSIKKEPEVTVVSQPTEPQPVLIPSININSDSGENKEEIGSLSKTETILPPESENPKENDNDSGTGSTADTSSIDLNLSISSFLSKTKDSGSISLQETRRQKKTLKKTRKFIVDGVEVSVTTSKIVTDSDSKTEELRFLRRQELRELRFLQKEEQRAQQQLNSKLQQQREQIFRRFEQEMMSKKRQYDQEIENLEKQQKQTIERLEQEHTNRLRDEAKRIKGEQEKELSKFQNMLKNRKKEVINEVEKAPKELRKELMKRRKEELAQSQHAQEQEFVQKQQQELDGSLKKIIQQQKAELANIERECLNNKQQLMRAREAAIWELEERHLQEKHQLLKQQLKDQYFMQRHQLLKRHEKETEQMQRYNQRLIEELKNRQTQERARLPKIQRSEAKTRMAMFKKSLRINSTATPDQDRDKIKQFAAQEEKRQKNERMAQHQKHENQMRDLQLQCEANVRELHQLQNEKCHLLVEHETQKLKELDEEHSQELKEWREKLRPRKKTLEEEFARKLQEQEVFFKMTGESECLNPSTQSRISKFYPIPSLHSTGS
Chain of Serine/threonine-protein kinase B-raf (Homo sapiens), P15056 [V600E] (P15056 whole entry V600E): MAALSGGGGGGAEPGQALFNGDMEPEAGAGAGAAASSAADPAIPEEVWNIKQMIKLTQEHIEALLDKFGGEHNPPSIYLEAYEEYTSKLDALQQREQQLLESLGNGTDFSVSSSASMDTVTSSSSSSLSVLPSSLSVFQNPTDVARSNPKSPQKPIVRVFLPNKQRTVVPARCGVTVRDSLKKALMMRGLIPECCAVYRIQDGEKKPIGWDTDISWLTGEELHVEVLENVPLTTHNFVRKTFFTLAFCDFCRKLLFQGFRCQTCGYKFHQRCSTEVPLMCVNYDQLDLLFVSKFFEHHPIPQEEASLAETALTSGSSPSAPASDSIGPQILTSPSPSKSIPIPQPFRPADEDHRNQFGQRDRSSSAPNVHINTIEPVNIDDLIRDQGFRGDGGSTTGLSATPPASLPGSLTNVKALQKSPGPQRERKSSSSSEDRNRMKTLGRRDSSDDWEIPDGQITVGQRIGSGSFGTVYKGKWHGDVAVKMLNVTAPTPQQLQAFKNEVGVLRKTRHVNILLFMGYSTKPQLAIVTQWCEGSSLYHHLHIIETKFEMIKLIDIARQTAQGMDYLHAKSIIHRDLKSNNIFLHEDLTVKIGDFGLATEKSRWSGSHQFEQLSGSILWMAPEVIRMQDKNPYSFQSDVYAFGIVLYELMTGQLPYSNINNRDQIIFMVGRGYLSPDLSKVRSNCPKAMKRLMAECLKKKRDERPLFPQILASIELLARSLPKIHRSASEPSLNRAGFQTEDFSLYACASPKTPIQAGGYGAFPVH
Chain of Citron Rho-interacting kinase (Homo sapiens) (O14578 whole entry): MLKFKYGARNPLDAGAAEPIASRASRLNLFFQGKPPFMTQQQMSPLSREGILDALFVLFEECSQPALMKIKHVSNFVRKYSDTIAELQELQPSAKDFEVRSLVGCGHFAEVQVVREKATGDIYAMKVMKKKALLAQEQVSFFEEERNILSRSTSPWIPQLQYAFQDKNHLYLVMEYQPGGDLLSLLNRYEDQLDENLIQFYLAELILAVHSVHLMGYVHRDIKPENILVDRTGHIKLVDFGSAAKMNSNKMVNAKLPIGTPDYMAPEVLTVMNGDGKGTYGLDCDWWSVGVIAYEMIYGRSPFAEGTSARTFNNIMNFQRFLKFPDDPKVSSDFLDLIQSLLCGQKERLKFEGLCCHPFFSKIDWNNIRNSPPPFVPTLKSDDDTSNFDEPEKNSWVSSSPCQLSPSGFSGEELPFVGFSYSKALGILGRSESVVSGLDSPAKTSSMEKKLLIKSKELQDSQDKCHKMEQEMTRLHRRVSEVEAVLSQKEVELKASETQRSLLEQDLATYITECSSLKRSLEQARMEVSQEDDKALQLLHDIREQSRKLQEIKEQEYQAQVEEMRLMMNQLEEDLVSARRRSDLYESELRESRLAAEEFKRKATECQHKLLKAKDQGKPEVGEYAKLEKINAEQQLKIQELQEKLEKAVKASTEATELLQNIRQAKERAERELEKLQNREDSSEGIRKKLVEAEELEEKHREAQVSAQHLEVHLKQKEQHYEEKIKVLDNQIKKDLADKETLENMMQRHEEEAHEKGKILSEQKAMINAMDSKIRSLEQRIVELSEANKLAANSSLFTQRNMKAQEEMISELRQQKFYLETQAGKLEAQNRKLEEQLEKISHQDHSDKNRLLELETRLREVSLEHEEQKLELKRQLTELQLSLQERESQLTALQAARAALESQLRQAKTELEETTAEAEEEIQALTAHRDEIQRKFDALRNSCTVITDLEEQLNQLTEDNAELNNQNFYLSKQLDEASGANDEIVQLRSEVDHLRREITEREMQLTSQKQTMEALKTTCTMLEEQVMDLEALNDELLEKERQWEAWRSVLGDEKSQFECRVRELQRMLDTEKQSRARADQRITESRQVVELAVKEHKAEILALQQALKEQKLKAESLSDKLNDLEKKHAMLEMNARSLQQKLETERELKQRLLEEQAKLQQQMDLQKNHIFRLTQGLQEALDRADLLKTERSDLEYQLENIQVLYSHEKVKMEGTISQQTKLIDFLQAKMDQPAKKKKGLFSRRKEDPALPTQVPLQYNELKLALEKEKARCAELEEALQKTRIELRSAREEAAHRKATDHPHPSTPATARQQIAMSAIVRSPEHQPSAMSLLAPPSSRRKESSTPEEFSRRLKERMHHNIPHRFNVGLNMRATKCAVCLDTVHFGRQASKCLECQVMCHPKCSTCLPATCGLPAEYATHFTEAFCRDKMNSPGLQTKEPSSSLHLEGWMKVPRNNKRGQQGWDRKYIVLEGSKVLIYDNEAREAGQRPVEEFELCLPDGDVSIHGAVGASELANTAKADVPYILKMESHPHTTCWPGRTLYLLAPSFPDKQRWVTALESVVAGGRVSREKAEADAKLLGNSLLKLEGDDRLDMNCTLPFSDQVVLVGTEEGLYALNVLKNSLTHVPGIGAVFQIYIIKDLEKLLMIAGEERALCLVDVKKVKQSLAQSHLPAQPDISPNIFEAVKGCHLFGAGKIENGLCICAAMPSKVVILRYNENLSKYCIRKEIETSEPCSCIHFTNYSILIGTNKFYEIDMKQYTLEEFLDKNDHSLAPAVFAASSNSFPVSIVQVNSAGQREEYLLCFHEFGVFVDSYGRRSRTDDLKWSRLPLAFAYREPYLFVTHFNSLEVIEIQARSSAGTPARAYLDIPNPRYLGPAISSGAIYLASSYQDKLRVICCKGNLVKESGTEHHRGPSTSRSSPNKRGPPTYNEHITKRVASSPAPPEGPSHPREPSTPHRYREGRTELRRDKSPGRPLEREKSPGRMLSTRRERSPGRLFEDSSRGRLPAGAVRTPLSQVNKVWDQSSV

CN(C)C(=O)Cn1cc(-c2ccc(-c3cncc4ccccc34)cc2)cn1
pIC50 [1]: 5.87

C=CC(=O)Nc1cccc(C(=O)Nc2ccc(Nc3cc(-c4[nH]c(SC)nc4C)ccn3)cc2)c1
% of control ([2]; at 1 µM): 87% | % of control ([2]; at 5 µM): 60%

CC(=O)Nc1cccc(-n2c(=O)n(C3CC3)c(=O)c3c(Nc4ccc(I)cc4F)n(C)c(=O)c(C)c32)c1
% of control [3]: 114%

Cc1cc([C@@H](C)Nc2ccccc2C(=O)O)c2nc(N3CCOCC3)cc(=O)n2c1 [AZD-6482]
% of control [4]: 92%

CCc1cccc(CC)c1NC(=O)c1nn(C)c2c1CCc1cnc(Nc3ccc(C(=O)NC4CCN(C)CC4)cc3OC(F)(F)F)nc1-2
pIC50 [5]: < 5.00

COc1cc(Nc2nc(C)cc(-c3cnn4nc(OC)ccc34)n2)cc(C(F)(F)F)c1
% of control [6]: 88%

C=CC(=O)Nc1cc(-n2c(=O)ccc3cnc4ccc(-c5ccc(NS(C)(=O)=O)cc5)cc4c32)ccc1C
% of control ([7]; at 1 µM): 94% | % of control ([7]; at 10 µM): 100%

O[C@H]1CC[C@H](Nc2ncc3nc(Nc4c(F)cc(F)cc4F)n([C@H]4CCOC4)c3n2)CC1
% of control [8]: 96%

N#Cc1cccc(-c2c[nH]c3ncnc(N4CCOCC4)c23)c1
% of control [9]: 100%
